Measured values: US20060025485A1, “Hydroxybenazamide compounds for treatment of cancer” (priority 2004, published 2006)
“Also recorded” adds a separate entry of the source.

What was measured:
[1] = tested on: BON pancreatic carcinoid cells; test: MTT cell proliferation assay, BON cells; type: cell-based, human; details: 100 μM, to day 10, versus DMSO
Protocol: MTT Cell Proliferation Assay. […] Cells were trypsinized and plated in triplicate to 24 wells plates and allowed to adhere overnight. […] Cells were incubated and maintained with change of treatments at 2 days. Cell growth rates were analyzed after the addition of MTT reagent to the cultured cells following manufacturer's instructions. Absorbance was determined using spectrophotometer at a wave length of 540 nm.

Chromogranin A = test: Western analysis of CgA, H727 cells; type: cell-based, human
Protocol: (§1) ZM 336372 treatment. H727 and BON cells were plated at 50-60% confluence in 100 mm cell culture dishes and incubated overnight.
(§2) Western blot analysis. Cellular extracts were prepared and quantified by BCA protein assay kit (Pierce, Rockford, Ill.) as previously described (Sippel et al., 2003). 30-50 μg of denatured proteins from each sample underwent electrophoresis on a SDS-polyacrylamide gel and transferred to a nitrocellulose membranes (Schleicher and Schuell, Keene, N.H.). Membranes were blocked for 1 hr in milk solution (1×PBS, 5% non-fat dry milk, 0.05% Tween-20) and then incubated at 4° C. overnight with primary antibodies. The following primary antibody dilutions were used: phospho-ERK 1/2 (1:1,000); phospho-MEK (1:1,000); phospho-Raf-1 (Serine338) (1:1,000); p21 and p18, (1:1,000); (Cell Signal Technology, Beverly, Mass.), Chromogranin A (1:2,000; Zymed Laboratories, San Francisco, Calif.); MASH-1 (1:1000, BD Pharmingen) and G3PDH (1:10,000; Trevigen, Gaithersburg, Md.). After primary antibody incubation, membranes were washed 3×5 min in PBS-T wash buffer (1×PBS, 0.05% Tween 20). Then the membranes were incubated with either 1:2,000 dilution of goat anti-rabbit or goat anti-mouse secondary antibody (Cell Signal Technology, Beverly, Mass.) depending on the source of the primary antibody for 1 hr at room temperature. Membranes were washed 3×5 min in PBS-T wash buffer and developed by Immunstar™ HRP (Bio-Rad Laboratories, Hercules, Calif.) according to the manufacturer's directions. For the detection of hASH1 protein, membranes were developed with SuperSignal West Femto chemiluminescence reagent (Pierce).

[2] = tested on: HepG2 cells, a hepatocellular cancer cell line; test: cell morphology after 9-day treatment, HepG2 cells; type: cell-based
Description: (§3) The results were assay using standard MTT, Western blot and cytoxocity assays.

[3] = tested on: H727 pulmonary carcinoid cells; test: cell culture pictures of H727 cells; type: cell-based, human; details: 100 μM, days 2, 4 and 6, versus DMSO
Protocol: (§4) Cell culture. Human pulmonary carcinoid cells (NCI-H727) were obtained from American Type Culture Collection (Manassas, Va.) and human pancreatic carcinoid tumor cells, BON a generous gift of Drs. Evers and Townsend (Parekh et al., 1994), were maintained in RPMI 1640 and D-MEM-F12 media (Life Technologies, Rockville, Md.) respectively supplemented with 10% Fetal Bovine Serum (Sigma, St. Louis, Mo.), 100 IU/ml penicillin and 100 μg/ml streptomycin (Life Technologies) in a humidified atmosphere of 5% CO2 in air at 37° C. The maintenance of BON-raf cells and the activation of Raf-1 were followed as described previously (Sippel et al., 2003; Sippel and Chen, 2002; McMahon, 2001).
as §1

pMEK and p-MAPK = test: Western blot of pMEK and p-MAPK, HepG2 cells; type: cell-based
Description: as §3

Panc-1 = Panc-1 MTT Assay; type: cell-based; set-up: dose or concentration left out as unconfirmed; details: Panc-1, three concentrations
Raf-1/MEK/ERK [4] = test: Western analysis of Raf-1 pathway activation, H727 cells; type: cell-based, human
Protocol: (§5) H727 and BON cells were plated at 50-60% confluence in 100 mm cell culture dishes and incubated overnight.
as §2

H727 cells = test: Drug toxicity assay, propidium iodide exclusion, H727 cells; type: cell-based, human
Protocol: (§6) Drug Toxicity Assay. Briefly, cells were trypsinized and plated in a 6-well plate at 1-2×10^6 in triplicate and allowed to adhere overnight. […] As a control, DMSO was added. After incubation, the media was removed and cells were trypsinized and added to removed media. Cells were incubated on ice and 2.5 μg/ml Propidium Iodide (Sigma, St. Louis, Mo.) was added five minutes before flow cytometry (Ballestrero et al., 2004). Data was acquired using a FACSCalibur benchtop flow cytometer (Becton Dickenson, San Jose, Calif.) using CellQuest acquisition and analysis software.

[5] = as above; type: cell-based, human; details: human, 500 μM, 2 days, compared to native H727 cells, read-out: viable cells by PI exclusion
Protocol: as §6

p-MAPK = test: Western blot of p-MAPK, MiaPaCa-2 cells; type: cell-based; details: all concentrations tested
Description: as §3

Panc-1 cells = test: cell morphology after 9-day treatment, Panc-1 cells; type: cell-based; details: Panc-1, 100 μM, 9-day cycle
Description: as §3

MiaPaCa-2 = test: cell morphology after 9-day treatment, MiaPaCa-2 cells; type: cell-based
Description: as §3

Raf-1/MEK/ERK [6] = test: Western analysis of Raf-1 pathway activation, BON cells; type: cell-based, human; details: 2 days
Protocol: as §5, §2

[7] = tested on: HT-29 cells, a colon cancer cell line; test: cell morphology after 9-day treatment, HT-29 cells; type: cell-based
Description: as §3

[8] = tested on: BON pancreatic carcinoid cells; test: cell culture pictures of BON cells; type: cell-based, human; details: 100 μM, 4 days, versus DMSO alone
Protocol: as §4, §1

hASH1 = test: Western analysis of hASH1, BON cells; type: cell-based, human; details: 20 μM and 100 μM, 2 days
Protocol: as §1
as §2, with “Membranes were washed 3×5 min in PBS-T wash buffer and developed by Immunstar™ HRP (Bio-Rad Laboratories, Hercules, Calif.) according to the manufacturer's directions. For the detection of hASH1 protein, membranes were developed with SuperSignal West Femto chemiluminescence reagent (Pierce).” left out

p18 = test: Western analysis of cell cycle inhibitor p18, H727 cells; type: cell-based, human; details: 20 μM and 100 μM, 2 days
Protocol: as §1
as §2, with “Membranes were washed 3×5 min in PBS-T wash buffer and developed by Immunstar™ HRP (Bio-Rad Laboratories, Hercules, Calif.) according to the manufacturer's directions. For the detection of hASH1 protein, membranes were developed with SuperSignal West Femto chemiluminescence reagent (Pierce).” left out

## Cc1ccc(NC(=O)c2cccc(N(C)C)c2)cc1NC(=O)c1ccc(O)cc1 [ZM336372, N-[5-(dimethyl-aminobensamido)-2-methylphenyl]-4-hydroxybenzamide]
[1]
  BON cell proliferation/metabolism (MTT): lack of cell metabolism; also recorded: clear suppression of growth; also recorded: growth suppression occurred as early as day 4 and was maintained out to day 10; also recorded: inhibited
Chromogranin A; 20 μM and 100 μM, 2 days
  CgA level: reduction in both CgA and hASH1; also recorded: dose dependent decrease
Chromogranin A; 100 μM, 10 minutes to 48 hours
  time of earliest detected reduction of CgA: 1 h
  time of greatest comparative loss of CgA: 48 h
Chromogranin A; 100 μM, days 2, 4 and 6
  CgA level over days: decrease in chromogranin; also recorded: CgA depletion was maintained to 6 days; also recorded: persistent reduction of CgA to day 6
[2]; HepG2, 100 μM, 9-day cycle
  cell death: significant cell death
[2]; HepG2, 50 microM, day 9, versus DMSO control
  cell growth in culture: clear difference in cell growth
[2]; HepG2, low concentrations, 9-day cycle
  cytopathology: cytopathology at low concentrations
[3]
  growth of H727 cells in culture: never reached confluence; also recorded: clear difference in growth; also recorded: paucity of cells reaching confluence
pMEK and p-MAPK
  p-MAPK level: increase in the levels of both pMEK and p-MAPK
  pMEK level: increase in the levels of both pMEK and p-MAPK
Panc-1
  cellular proliferation (MTT): inhibition at the highest concentration; also recorded: clear decrease
Raf-1/MEK/ERK [4]; 20 μM and 100 μM, 2 days
  phosphorylated ERK 1/2 (pERK, pMAPK): elevated phosphorylated MAPK; also recorded: activation of MEK 1/2 and ERK 1/2; also recorded: dose dependent increases
  phosphorylated MEK 1/2 (pMEK): activation of MEK 1/2 and ERK 1/2; also recorded: dose dependent increases
  phosphorylated Raf-1 at serine 338 (pRaf-1): phosphorylated at serine 338; also recorded: dose dependent increases
Raf-1/MEK/ERK [4]; 100 μM, days 2, 4 and 6
  phosphorylated MEK 1/2 over time: prolonged; also recorded: greater than controls out to 6 days
H727 cells; 20-100 μM
  cytolysis: less than 20%
H727 cells; 20 to 100 μM, 2 days, compared to DMSO
  viability by PI exclusion: significant viability was maintained
[5]
  viability at 2 days, 500 µM: 40 to 50%
p-MAPK
  p-MAPK level: increase in p-MAPK following treatment at all concentrations tested
Panc-1 cells
  cell death: significant cell death
MiaPaCa-2; MiaPaCa-2, 100 μM, 9-day cycle
  cell death: significant cell death
MiaPaCa-2; MiaPaCa-2, 100 microM, day 9
  cell numbers in culture: dramatic decrease in cell numbers
Raf-1/MEK/ERK [6]; 20 μM and 100 μM
  phosphorylated Raf-1 at serine 338 (pRaf-1): dose dependent increases
Raf-1/MEK/ERK [6]; 20 to 100 μM
  phosphorylated ERK 1/2 (pERK, pMAPK): increased phosphorylation of both MEK and MAPK; also recorded: strong activation of ERK 1/2 and MEK 1/2; also recorded: increasing phosphorylated MEK and MAP kinase; also recorded: dose dependent increases
  phosphorylated MEK 1/2 (pMEK): increased phosphorylation of both MEK and MAPK; also recorded: strong activation of ERK 1/2 and MEK 1/2; also recorded: increasing phosphorylated MEK and MAP kinase; also recorded: dose dependent increases
[7]; HT-29, 100 μM, 9-day cycle
  cell death: significant cell death
[7]; HT-29, 50 microM, day 9, versus control
  number of cells in culture: dramatic difference in the number of cells present at day 9
[7]; HT-29, low concentrations, 9-day cycle
  cytopathology: cytopathology at low concentrations
[8]
  growth of BON cells in culture: dramatic growth arrest; also recorded: clear difference in growth
hASH1
  hASH1 level: reduction in both CgA and hASH1; also recorded: dose dependent decrease
p18
  p18 expression: induced; also recorded: significant induction
